In BindingDB's records for doi:10.1016/j.vascn.2014.07.002 (University of Oxford, 2014):

Experiments:
[1] = molecular target: Potassium voltage-gated channel subfamily H member 2 (Homo sapiens, UniProt Q12809); test: Inhibition of rapid delayed inward rectifying potassium current (IKr) measured using manual patch clamp assay
[2] = Inhibition of rapid delayed inward rectifying potassium current (IKr) measured using manual patch clamp assay

Chain of Potassium voltage-gated channel subfamily H member 2 (Q12809 whole entry): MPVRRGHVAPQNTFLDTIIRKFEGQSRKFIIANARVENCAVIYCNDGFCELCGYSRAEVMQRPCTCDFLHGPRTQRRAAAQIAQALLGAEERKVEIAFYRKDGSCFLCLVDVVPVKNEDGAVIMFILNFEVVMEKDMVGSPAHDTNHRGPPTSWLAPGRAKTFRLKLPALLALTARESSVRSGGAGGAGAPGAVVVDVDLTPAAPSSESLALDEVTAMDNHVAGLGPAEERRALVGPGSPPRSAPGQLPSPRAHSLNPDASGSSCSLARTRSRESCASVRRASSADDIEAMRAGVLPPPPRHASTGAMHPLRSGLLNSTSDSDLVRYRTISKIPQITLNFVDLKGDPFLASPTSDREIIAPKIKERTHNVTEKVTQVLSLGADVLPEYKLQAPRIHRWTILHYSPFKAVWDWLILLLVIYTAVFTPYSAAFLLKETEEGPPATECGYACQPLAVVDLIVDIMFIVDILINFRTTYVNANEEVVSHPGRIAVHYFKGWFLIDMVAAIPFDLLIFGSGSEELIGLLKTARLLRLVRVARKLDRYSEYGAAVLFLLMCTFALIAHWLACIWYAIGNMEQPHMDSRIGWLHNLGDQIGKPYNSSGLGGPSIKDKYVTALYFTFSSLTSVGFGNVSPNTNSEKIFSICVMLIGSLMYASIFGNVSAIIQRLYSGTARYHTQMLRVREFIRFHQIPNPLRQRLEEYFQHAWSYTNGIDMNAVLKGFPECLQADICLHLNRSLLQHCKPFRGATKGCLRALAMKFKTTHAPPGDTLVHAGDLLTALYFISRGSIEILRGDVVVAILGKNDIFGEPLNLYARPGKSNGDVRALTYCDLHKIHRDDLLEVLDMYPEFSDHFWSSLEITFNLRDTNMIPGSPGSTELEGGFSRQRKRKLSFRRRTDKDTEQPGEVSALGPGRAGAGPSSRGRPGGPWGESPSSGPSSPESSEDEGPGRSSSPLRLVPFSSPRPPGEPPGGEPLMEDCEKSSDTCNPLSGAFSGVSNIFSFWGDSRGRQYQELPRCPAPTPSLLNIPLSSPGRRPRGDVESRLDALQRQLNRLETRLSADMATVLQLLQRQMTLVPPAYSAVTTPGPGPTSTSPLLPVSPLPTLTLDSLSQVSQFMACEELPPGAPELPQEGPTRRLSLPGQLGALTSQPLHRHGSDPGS

Compound	IC50 [1]	IC50 [2]
O=C(O)c1ccc(-n2nc(-c3ccccc3O)nc2-c2ccccc2O)cc1 [CHEBI:49005]	3.98 mM	
C[C@H]1CN(C[C@H](Cc2ccccc2)C(=O)NCC(=O)O)CC[C@@]1(C)c1cccc(O)c1 [ADL 8-2698]		794 µM
